Laboratory results taken from patent publication US5550139A, “Serine protease inhibitors” (The Wichita State University, priority 1994, dated 1996).

Assays:
[1] = target: T1, human leukocyte elastase (HLE) (Homo sapiens, UniProt P08246); experiment: Inactivation of human leukocyte elastase (kobs/[I]); format: biochemical
T1 construct: purchased Elastin Products Co., Owensville, Mo
T1 sequence (P08246 30-247 limits assumed): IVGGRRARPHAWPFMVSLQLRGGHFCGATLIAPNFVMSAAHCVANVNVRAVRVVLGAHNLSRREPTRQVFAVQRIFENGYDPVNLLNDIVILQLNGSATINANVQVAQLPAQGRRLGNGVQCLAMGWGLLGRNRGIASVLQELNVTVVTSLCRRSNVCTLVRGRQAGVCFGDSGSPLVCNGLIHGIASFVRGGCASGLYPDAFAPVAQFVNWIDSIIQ
From the text: (§1) An in vitro assay can be used to screen compounds of the invention for the ability to reduce or inhibit serine proteinase activity. The human leukocyte elastase (HLE), cathepsin G (Cath G), and proteinase-3 assays have each been described (Groutas et al., J. Med. Chem. 32:1607-1611, 1989; Groutas et al., Arch. Biochem. Biophys. 294:144-146, 1992; Kao et al., J. Clin. Invest. 82:1963-1973, 1988, each incorporated by reference herein). The pseudo first-order inactivation rate constants (kobs) were obtained from plots of ln(vt /vo) vs t, and expressed in terms of the apparent second-order inactivation rate constant, kobs /[I] M^-1 s^-1 (Tables 1-7). Tables 1-7 disclose the activity of preferred compounds of the invention as inhibitors of HLE and Cath G. Table 7 discloses the activity of Compounds 4A (C) and 3E (D) as inhibitors of Proteinase-3 activity. Compounds (A) and (B) have been disclosed previously (Groutas et al., Bioorganic and Med. Chem. 1(4):273-277, 1993; Groutas et al., J. Med. Chem. 36:3178, 1993).
XII. Materials: Human leukocyte elastase was purchased from Elastin Products Co., Owensville, Mo.
(§2) Human leukocyte cathepsin G was obtained from Athens Research and Technology, Athens, Ga. Methoxysuccinyl Ala-Ala-Pro-Val p-nitroanilide and methoxysuccinyl Ala-Ala-Pro-Phe p-nitroanilide were purchased from Sigma Chemicals Co., St. Louis, Mo. Baker-analyzed 60-200 mesh silica gel was used for flash chromatography.

cathepsin G (Cath G) = target: T2, cathepsin G (Cath G) (Homo sapiens, UniProt P08311); experiment: Inactivation of human leukocyte cathepsin G (kobs/[I]); format: biochemical; conditions: for kinact/KI: pH 7.5
T2 construct: purchased Athens Research and Technology, Athens, Ga
T2 sequence (P08311 21-244 limits assumed): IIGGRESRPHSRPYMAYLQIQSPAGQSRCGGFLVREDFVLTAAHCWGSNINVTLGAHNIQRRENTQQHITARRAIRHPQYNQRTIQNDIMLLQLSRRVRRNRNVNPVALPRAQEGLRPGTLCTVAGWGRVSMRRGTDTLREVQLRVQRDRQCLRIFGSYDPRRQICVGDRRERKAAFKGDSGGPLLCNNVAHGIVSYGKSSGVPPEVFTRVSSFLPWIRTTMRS
Protocol: Human leukocyte cathepsin G (1.33 uM) is incubated with compound 8 (133 uM) (a) or compound 10 (13.3 uM) (b) in 0.1M HEPES buffer, pH 7.5, and 10% DMSO. Aliquots were withdrawn at different time intervals and assayed for enzymatic activity using methoxysuccinyl Ala-Ala-Pro-Phe p-nitroanilide.
Human leukocyte cathepsin G (1.48 μM was incubated with inhibitor 5A (1.48 μM in 0.1M HEPES buffer, pH 7.5, and 1% DMSO. Aliquots were withdrawn at different time intervals and assayed for enzymatic activity using methoxysuccinyl Ala-Ala-Pro-Phe p-nitroanilide.
as §1, §2

O=C(CS(=O)(=O)c1ccccc1)OCN1C(=O)C(Cc2ccccc2)CS1(=O)=O (stereo not shown) [Compound 5C]
kinact/KI ([1]; Table 4): 340 M⁻¹ s⁻¹ | kinact/KI (cathepsin G (Cath G); Table 4): 1050 M⁻¹ s⁻¹

CC(C)C[C@H]1C(=O)N(CS(=O)(=O)c2ccccc2)S(=O)(=O)N1CC(=O)OC(C)(C)C [Compound 5E]
kinact/KI ([1]; Table 6): 2020 M⁻¹ s⁻¹

Nc1ccc(O)c(C(=O)OCN2C(=O)C(Cc3ccccc3)CS2(=O)=O)c1 (stereo not shown) [Compound 5]
kinact/KI ([1]; Table 1A): 470 M⁻¹ s⁻¹ | kinact/KI (cathepsin G (Cath G); Table 1A): 3330 M⁻¹ s⁻¹

CC(C)(C)OC(=O)N1CCC[C@H]1C(=O)OCN1C(=O)C(Cc2ccccc2)CS1(=O)=O (stereo partly shown) [Compound 6B]
kinact/KI ([1]; Table 3): 170 M⁻¹ s⁻¹ | kinact/KI (cathepsin G (Cath G); Table 3): 590 M⁻¹ s⁻¹

O=C(/C=C\Sc1ccccc1)OCN1C(=O)C(Cc2ccccc2)CS1(=O)=O (stereo not shown) [Compound 6C]
kinact/KI ([1]; Table 4): 170 M⁻¹ s⁻¹ | kinact/KI (cathepsin G (Cath G); Table 4): 7270 M⁻¹ s⁻¹

O=C1C(Cc2ccccc2)CS(=O)(=O)N1C(CF)Sc1ccccc1 (stereo not shown) [Compound 7, 4-Benzyl-2-(2-fluoro-1-phenylthioethyl) isothiazolidin-3-one 1,1-dioxide]
HLE % inhibition ([1]; Table 1B footnote, [I]/[E] ratio of 200, 10 minute incubation period): 24% | kinact/KI (cathepsin G (Cath G); Table 1B): 40 M⁻¹ s⁻¹

O=C(OCN1C(=O)C(Cc2ccccc2)CS1(=O)=O)[C@H]1CCCN1C(=O)OCc1ccccc1 (stereo partly shown) [Compound 7B]
kinact/KI ([1]; Table 3): 520 M⁻¹ s⁻¹ | kinact/KI (cathepsin G (Cath G); Table 3): 360 M⁻¹ s⁻¹

O=C(/C=C/Sc1ccccc1)OCN1C(=O)C(Cc2ccccc2)CS1(=O)=O (stereo not shown) [Compound 7C]
kinact/KI ([1]; Table 4): 240 M⁻¹ s⁻¹ | kinact/KI (cathepsin G (Cath G); Table 4): 5520 M⁻¹ s⁻¹

O=C1C(Cc2ccccc2)CS(=O)(=O)N1C(CF)S(=O)(=O)c1ccccc1 (stereo not shown) [Compound 8, 4-Benzyl-2-(2-fluoro-1-phenylsulfonylethyl) isothiazolidin-3-one 1,1-dioxide]
kinact/KI ([1]; Table 1B): 50 M⁻¹ s⁻¹ | time-dependent loss of serine protease activity (cathepsin G (Cath G); FIG. 5, Cath G 1.33 uM, inhibitor 133 uM, 0.1M HEPES pH 7.5, 10% DMSO): time-dependent loss of serine protease activity | kinact/KI (cathepsin G (Cath G); Table 1B): 420 M⁻¹ s⁻¹

C[C@H](NC(=O)OCc1ccccc1)C(=O)OCN1C(=O)C(Cc2ccccc2)CS1(=O)=O (stereo partly shown) [Compound 8B]
kinact/KI ([1]; Table 3): 50 M⁻¹ s⁻¹ | kinact/KI (cathepsin G (Cath G); Table 3): 2770 M⁻¹ s⁻¹

O=C(C=CS(=O)(=O)c1ccccc1)OCN1C(=O)C(Cc2ccccc2)CS1(=O)=O (stereo not shown) [Compound 8C]
kinact/KI ([1]; Table 4): 380 M⁻¹ s⁻¹ | kinact/KI (cathepsin G (Cath G); Table 4): 2770 M⁻¹ s⁻¹

O=C1[C@H](Cc2ccccc2)NS(=O)(=O)N1CCl [Compound 8E]
kinact/KI (cathepsin G (Cath G); Table 6): 30 M⁻¹ s⁻¹

O=C1[C@H](Cc2ccccc2)NS(=O)(=O)N1CS(=O)(=O)c1ccccc1 [Compound 10E]
kinact/KI (cathepsin G (Cath G); Table 6): 30 M⁻¹ s⁻¹

CN1[C@@H](Cc2ccccc2)C(=O)N(CS(=O)(=O)c2ccccc2)S1(=O)=O [Compound 11E]
kinact/KI (cathepsin G (Cath G); Table 6): 130 M⁻¹ s⁻¹

CCCCN1[C@@H](Cc2ccccc2)C(=O)N(CS(=O)(=O)c2ccccc2)S1(=O)=O [Compound 12E]
kinact/KI (cathepsin G (Cath G); Table 6): 320 M⁻¹ s⁻¹

O=C1C(Cc2ccccc2)CS(=O)(=O)N1C[S+]([O-])c1ccccc1 (stereo not shown) [Compound 13D]
kinact/KI (cathepsin G (Cath G); Table 5): 590 M⁻¹ s⁻¹

O=C1C(Cc2ccccc2)CS(=O)(=O)N1CS(=O)(=O)c1ccccc1 (stereo not shown) [Compound 14D]
Cath G kobs/[I] (cathepsin G (Cath G); Table 5): 960 M⁻¹ s⁻¹

CC(C)(C)OC(=O)CN1[C@@H](Cc2ccccc2)C(=O)N(CS(=O)(=O)c2ccccc2)S1(=O)=O [Compound 14E]
kinact/KI (cathepsin G (Cath G); Table 6): 1130 M⁻¹ s⁻¹

CS(=O)(=O)CN1C(=O)C(Cc2ccccc2)CS1(=O)=O (stereo not shown) [Compound 15D]
kinact/KI (cathepsin G (Cath G); Table 5): 2080 M⁻¹ s⁻¹

O=C1[C@H](Cc2ccccc2)N(C/C=C/c2ccccc2)S(=O)(=O)N1CS(=O)(=O)c1ccccc1 [Compound 15E]
kinact/KI (cathepsin G (Cath G); Table 6): 760 M⁻¹ s⁻¹

CCCCN1[C@@H](CC(C)C)C(=O)N(CS(=O)(=O)c2ccccc2)S1(=O)=O [Compound 16E]
kinact/KI ([1]; Table 6): 10600 M⁻¹ s⁻¹

CC(C)C[C@H]1C(=O)N(CS(=O)(=O)c2ccccc2)S(=O)(=O)N1Cc1ccccc1 [Compound 17E]
kinact/KI (cathepsin G (Cath G); Table 6): 440 M⁻¹ s⁻¹

CC(C)C[C@H]1C(=O)N(CS(C)(=O)=O)S(=O)(=O)N1C [Compound 18E]
kinact/KI ([1]; Table 6): 4590 M⁻¹ s⁻¹
